molecular target: T1, Rat liver microsomal squalene synthetase (Rattus norvegicus, UniProt Q02769); test: In vitro inhibition of squalene synthetase; assay type: biochemical; conditions: 10 µM test compound; rat liver microsomes, labelled farnesyl pyrophosphate, 10 minutes at 37 °C; compared to controls with no test compound
T1 construct: Rat liver microsome, the source of enzyme; from tissue; host or cells: rat liver microsomes
T1 sequence (Q02769 1-416): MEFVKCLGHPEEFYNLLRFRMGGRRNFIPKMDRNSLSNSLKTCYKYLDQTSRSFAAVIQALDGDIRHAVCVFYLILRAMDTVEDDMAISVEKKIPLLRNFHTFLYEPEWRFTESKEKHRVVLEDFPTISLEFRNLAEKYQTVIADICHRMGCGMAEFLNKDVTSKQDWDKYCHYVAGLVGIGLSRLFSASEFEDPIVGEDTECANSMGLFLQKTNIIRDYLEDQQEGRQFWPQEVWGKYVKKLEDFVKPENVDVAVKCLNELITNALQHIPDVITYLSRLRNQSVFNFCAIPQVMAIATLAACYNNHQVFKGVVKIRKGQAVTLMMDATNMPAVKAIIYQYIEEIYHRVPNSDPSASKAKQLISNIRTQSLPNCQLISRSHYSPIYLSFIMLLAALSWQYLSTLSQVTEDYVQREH
In short: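 Rat liver microsomes converted labelled farnesyl pyrophosphate to squalene under nitrogen. Ethanolic KOH stopped the reaction, and squalene was extracted into hexane and separated on alumina before counting. Percent inhibition was taken at 10 µM (or 1 µM) versus compound-free controls.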

Row | Compound | inhibition at 10 µM [%]
1 | O=C(O)[C@H]1[C@H](C(=O)O)[C@H](C(=O)N(Cc2ccccc2)Cc2ccc(Oc3ccccc3)cc2)[C@H]1C(=O)N(Cc1ccccc1)Cc1ccc(Oc2ccccc2)cc1 [Example 15, (1α,2β,3β,4α)-1,2-Di[N-benzyl-N-(4-phenoxybenzyl)aminocarbonyl]cyclobutane-3,4-dicarboxylic acid] | 99
2 | O=C(O)[C@H]1[C@H](C(=O)O)[C@H](C(=O)N(CC=CC=Cc2ccccc2)Cc2ccccc2)[C@H]1C(=O)N(CC=CC=Cc1ccccc1)Cc1ccccc1 [Example 36, (1α,2β,3β,4α)-1,2-Di[N-benzyl-N-(5-phenyl-2,4-pentadienyl)aminocarbonyl]cyclobutane-3,4-dicarboxylic acid] | 63
3 | C#CCN(Cc1ccc(Oc2ccccc2)cc1)C(=O)[C@H]1[C@@H](C(=O)O)[C@H](C(=O)O)[C@@H]1C(=O)N(CC#C)Cc1ccc(Oc2ccccc2)cc1 [Example 27, (1α,2β,3β,4α)-1,2-Di[N-propargyl-N-(4-phenoxybenzyl)aminocarbonyl]cyclobutane-3,4-dicarboxylic acid] | 79
4 | CCCN(Cc1ccc(C(=O)c2ccccc2)cc1)C(=O)C1C(C(=O)O)C(C(=O)O)C1C(=O)N(CCC)Cc1ccc(C(=O)c2ccccc2)cc1 (stereo not drawn) [Example 118B, (1α,2β,3β,4α)-1,2-Di[N-propyl-N-(4-benzoylbenzyl)aminocarbonyl]cyclobutane-3,4-carboxylic acid] | 51
5 | O=C(O)[C@H]1[C@H](C(=O)O)[C@H](C(=O)N(Cc2ccc(Oc3ccccc3)cc2)C2CC2)[C@H]1C(=O)N(Cc1ccc(Oc2ccccc2)cc1)C1CC1 [Example 30, (1α,2β,3β,4α)-1,2-Di[N-cyclopropyl-N-(4-phenoxybenzyl)aminocarbonyl]cyclobutane-3,4-dicarboxylic acid] | 67
6 | CCCN(Cc1ccc(Oc2ccc3ccccc3c2)cc1)C(=O)C1C(C(=O)O)C(C(=O)O)C1C(=O)N(CCC)Cc1ccc(Oc2ccc3ccccc3c2)cc1 (stereo not drawn) [Example 88, (1α,2β,3β,4α)-1,2-Di[N-propyl-N-(4-naphth-2-yloxybenzyl)aminocarbonyl]cyclobutane-3,4-dicarboxylic acid] | 86
7 | O=C(O)[C@H]1[C@H](C(=O)O)[C@H](C(=O)OCc2ccc(Oc3ccccc3)cc2)[C@H]1C(=O)OCc1ccc(Oc2ccccc2)cc1 [Example 65B, (1α,2β,3β,4α)-1,2-Di-(4-phenoxybenzyloxycarbonyl)-3,4-dicarboxylic acid] | 58
8 | COCCN(Cc1ccc(Oc2ccccc2)cc1)C(=O)C1C(C(=O)O)C(C(=O)O)C1C(=O)N(CCOC)Cc1ccc(Oc2ccccc2)cc1 (stereo not drawn) [Example 40B, (1α,2β,3β,4α)-1,2-Di[N-(2-methoxyethyl)-N-(4-phenoxybenzyl)aminocarbonyl]cyclobutane-3,4-dicarboxylic acid] | 82
9 | O=C(O)[C@H]1[C@H](C(=O)O)[C@H](C(=O)N(CCCCc2ccccc2)Cc2ccc(Oc3ccccc3)cc2)[C@H]1C(=O)N(CCCCc1ccccc1)Cc1ccc(Oc2ccccc2)cc1 [Example 58, (1α,2β,3β,4α)-1,2-Di[N-(4-phenoxybenzyl)-N-(4-phenyl-1-butyl)aminocarbonyl]cyclobutane-3,4-dicarboxylic acid] | 63
10 | CCCN(Cc1ccc(Oc2ccccc2)cc1)C(=O)[C@@H]1[C@H](C(=O)C=[N+]=[N-])[C@@H](C(=O)C=[N+]=[N-])[C@H]1C(=O)N(CCC)Cc1ccc(Oc2ccccc2)cc1 (relative stereo) [Example 102, (1α,2β,3β,4α)-3,4-Bis(diazoacetyl)-1,2-di[N-propyl-N-(4-phenoxybenzyl)aminocarbonyl]cyclobutane] | 58
11 | O=C(O)C1C(C(=O)O)C(C(=O)N(Cc2ccc(Oc3ccccc3)cc2)CC2CC2)C1C(=O)N(Cc1ccc(Oc2ccccc2)cc1)CC1CC1 (stereo not drawn) [Example 47B, (1α,2β,3β,4α)-1,2-Di[N-(cyclopropylmethyl)-N-(4-phenoxybenzyl)aminocarbonyl]cyclobutane-3,4-dicarboxylic acid] | 87
12 | CN(Cc1ccc(Oc2ccccc2)cc1)C(=O)NC1C(NC(=O)N(C)Cc2ccc(Oc3ccccc3)cc2)C(C(=O)O)C1C(=O)O (stereo not drawn) [Example 120, (1α,2β,3β,4α)-1,2-Di[N-methyl-N-(4-phenoxybenzyl)aminocarbonylamino]cyclobutane-3,4-dicarboxylic acid] | 54
13 | CCCN(Cc1ccc(Oc2cccc(C)c2)cc1)C(=O)C1C(C(=O)O)C(C(=O)O)C1C(=O)N(CCC)Cc1ccc(Oc2cccc(C)c2)cc1 (stereo not drawn) [Example 87B, (1α,2β,3β,4α)-1,2-Di{N-propyl-[4-(3'-methyl)phenoxybenzyl]aminocarbonyl}cyclobutane-3,4-dicarboxylic acid] | 72
14 | CCCN(Cc1ccc(Oc2ccc(C)cc2)cc1)C(=O)C1C(C(=O)O)C(C(=O)O)C1C(=O)N(CCC)Cc1ccc(Oc2ccc(C)cc2)cc1 (stereo not drawn) [Example 90, (1α,2β,3β,4α)-1,2-Di[N-propyl-N-(4-(4-methyl-1-phenoxy)benzyl)aminocarbonyl]cyclobutane-3,4-dicarboxylic acid] | 53

same assay, conditions: values marked * in Table 1: 1 µM test compound; rat liver microsomes, labelled farnesyl pyrophosphate, 10 minutes at 37 °C

Row | Compound | inhibition at 1 µM [%] | % Inhibition at 1 µM
15 | CCCN(Cc1ccc(Oc2ccccc2)cc1)C(=O)C1C(Cc2nn[nH]n2)C(C(=O)O)C1C(=O)N(CCC)Cc1ccc(Oc2ccccc2)cc1 (stereo not drawn) [Example 73B] | 75 | –
16 | O=C(O)C1C(C(=O)O)C(C(=O)N(Cc2ccc(F)cc2)Cc2ccc(Oc3ccccc3)cc2)C1C(=O)N(Cc1ccc(F)cc1)Cc1ccc(Oc2ccccc2)cc1 (stereo not drawn) [Example 53B, (1α,2β,3β,4α)-1,2-Di[N-(4-fluorobenzyl)-N-(4-phenoxybenzyl)aminocarbonyl]cyclobutane-3.4-dicarboxylic acid] | 63 | –
17 | CCCN(Cc1ccc(Oc2ccccc2)cc1)C(=O)C1C(C=CC(=O)O)C(C(=O)O)C1C(=O)N(CCC)Cc1ccc(Oc2ccccc2)cc1 (stereo not drawn) [Example 76B] | 57 | –
18 | CCSCCN(Cc1ccc(Oc2ccccc2)cc1)C(=O)C1C(C(=O)O)C(C(=O)O)C1C(=O)N(CCSCC)Cc1ccc(Oc2ccccc2)cc1 (stereo not drawn) [Example 42, (1α,2β,3β,4α)-1,2-Di[N-(2-ethylthioethyl)-N-(4-phenoxybenzyl)aminocarbonyl]cyclobutane-3,4-dicarboxylic acid] | 81 | –
19 | CCCN(Cc1ccc(Oc2ccccc2)cc1)C(=O)[C@@H]1[C@H](C(=O)O)[C@@H](CC(=O)O)[C@H]1C(=O)N(CCC)Cc1ccc(Oc2ccccc2)cc1 (relative stereo) [Example 101C] | 86 | –
20 | (1α,2β,3β,4α)-1,2-Di[N-propyl-N-(4-phenoxybenzyl)aminocarbonyl]cyclobutane-3,4-dicarboxylic acid mono-l-Norleucine amide [Example 113] | – | 31* %
21 | CCCN(Cc1ccc(Oc2ccccc2)cc1)C(=O)CC1C(CC(=O)N(CCC)Cc2ccc(Oc3ccccc3)cc2)C(C(=O)O)C1C(=O)O (stereo not drawn) [Example 127C, (1α,2β,3β,4α)-1,2-Di-[N-propyl-N-(4-phenoxybenzyl)aminocarbonylmethyl]-cyclobutane-3,4-dicarboxylic acid] | 68 | –
22 | CCCN(Cc1ccc(Oc2ccccc2)cc1)C(=O)C1C(C(=O)O)C(C(=O)NCCC(=O)O)C1C(=O)N(CCC)Cc1ccc(Oc2ccccc2)cc1 (stereo not drawn) [Example 111, (1α,2β,3β,4α)-1,2-Di[N-propyl-N-(4-phenoxybenzyl)aminocarbonyl]cyclobutane-3,4-dicarboxylic acid mono-β-Alanine amide] | 49 | –
23 | O=C(O)C1C(C(=O)O)C(C(=O)N(Cc2ccc(Oc3ccccc3)cc2)C2CCC2)C1C(=O)N(Cc1ccc(Oc2ccccc2)cc1)C1CCC1 (stereo not drawn) [Example 48, (1α,2β,3β,4α)-1,2-Di[N-cyclobutyl-N-(4-phenoxybenzyl)aminocarbonyl]cyclobutane-3,4-dicarboxylic acid] | 79 | –
24 | CCCN(Cc1ccc(COc2ccccc2)cc1)C(=O)C1C(C(=O)O)C(C(=O)O)C1C(=O)N(CCC)Cc1ccc(COc2ccccc2)cc1 (stereo not drawn) [Example 69E, (1α,2β,3β,4α)-1,2-Di[N-propyl-N-[4-phenoxymethylbenzyl]aminocarbonyl]cyclobutane-3,4-dicarboxylic acid] | 56 | –
25 | CCCN(Cc1ccc(Oc2ccccc2)cc1)C(=O)C1C(C(=O)O)C(C(=O)N(C)CC(=O)O)C1C(=O)N(CCC)Cc1ccc(Oc2ccccc2)cc1 (stereo not drawn) [Example 108, (1α,2β,3β,4α)-1,2-Di[N-propyl-N-(4-phenoxybenzyl)aminocarbonyl]cyclobutane-3,4-dicarboxylic acid mono-Sarcosine amide] | 59 | –
26 | CCCN(Cc1ccc(Oc2ccccc2)cc1)C(=O)C1C(C(=O)O)C(C(O)C(=O)O)C1C(=O)N(CCC)Cc1ccc(Oc2ccccc2)cc1 (stereo not drawn) [Example 78B, (1α,2β,3β,4α)-1,2-Di[N-propyl-N-(4-phenoxybenzyl)aminocarbonyl]-4-(1-carboxy-1-hydroxymethyl)cyclobutane-3-carboxylic acid] | 82 | –

same assay, conditions: values marked * in Table 1: 1 µM test compound; rat liver microsomes, labelled farnesyl pyrophosphate, 10 minutes at 37 °C; 1 µM

Row | Compound | % Inhibition at 1 µM
27 | CCCN(Cc1ccc(Oc2ccccc2)cc1)C(=O)C1C(C(=O)O)C(C(=O)NC(CO)C(=O)O)C1C(=O)N(CCC)Cc1ccc(Oc2ccccc2)cc1 (single isomer, unassigned) [Example 110B, (1α,2β,3β,4α)-1,2-Di[N-propyl-N-(4-phenoxybenzyl)aminocarbonyl]cyclobutane-3,4-dicarboxylic acid mono-Serine amide] | 69* %

Source: EP0677039B1, “CYCLOBUTANE DERIVATIVES AS INHIBITORS OF […] SYNTHETASE AND PROTEIN […]” (Abbott Laboratories, priority 1993, dated 1995)
